Results taken from patent US9132140B2, “Boronic acid derivatives and therapeutic uses thereof” (Rempex Pharmaceuticals, Inc., priority 2013, dated 2015).

Tests used:
KPM1111 (NDM, KPC) = type: cell-based, Klebsiella pneumoniae
Source text: (§1) Several strains simultaneously expressing both class A and class B carbapenemases, which were constructed using conjugation, were also included in the panel.

KPM1122 (NDM, VIM) = type: cell-based, Klebsiella pneumoniae
Source text: as §1

KPM1123 (KPC-2 TEM SHV) = type: cell-based, Klebsiella pneumoniae
Source text: as §1

KPM1344 (VIM-1) = type: cell-based, Klebsiella pneumoniae
Source text: as §1

KPM1345 (VIM-1 SHV) = type: cell-based, Klebsiella pneumoniae
Source text: as §1

[1] = system: KPM1346 (NDM-1 TEM SHV CTX-M-15 CMY); type: cell-based, Klebsiella pneumoniae
Source text: as §1

[2] = system: KPM1347 (NDM-1 SHV CTX-M-15); type: cell-based, Klebsiella pneumoniae
Source text: as §1

ECL1026 (KPC) = type: cell-based, Enterobacter cloacae
Source text: as §1

ECL1036 (KPC) = type: cell-based, Enterobacter cloacae
Source text: as §1

ECL1045 (VIM-1) = type: cell-based, Enterobacter cloacae
Source text: as §1

ECL1055 (KPC) = type: cell-based, Enterobacter cloacae
Source text: as §1

[3] = system: ECL1057 (NDM-1, TEM-1, CTX-M-15); type: cell-based, Enterobacter cloacae
Source text: as §1

ECL1082 (VIM-1) = type: cell-based, Enterobacter cloacae
Source text: as §1

ECLM1013 (NDM, KPC) = type: cell-based, Enterobacter cloacae
Source text: as §1

ECLM1014 (NDM, KPC) = type: cell-based, Enterobacter cloacae
Source text: as §1

ECLM1015 (NDM, KPC) = type: cell-based, Enterobacter cloacae
Source text: as §1

ECLM1016 (NDM, KPC) = type: cell-based, Enterobacter cloacae
Source text: as §1

ECLM1017 (VIM, KPC) = type: cell-based, Enterobacter cloacae
Source text: as §1

ECLM1018 (VIM, KPC) = type: cell-based, Enterobacter cloacae
Source text: as §1

ECLM1019 (VIM, KPC) = type: cell-based, Enterobacter cloacae
Source text: as §1

EC1061 (NDM-1, CMY-6) = type: cell-based, Escherichia coli
Source text: as §1

[4] = system: EC1064 (NDM-1, CMY-6, CTX-M-15); type: cell-based, Escherichia coli
Source text: as §1

EC1065 (IMP-1 CMY-2) = type: cell-based, Escherichia coli
Source text: as §1

EC1068 (VIM-1) = type: cell-based, Escherichia coli
Source text: as §1

C[C@@H](O)[C@H]1C(=O)N2C(C(=O)O)=C(SCCN=CN)C[C@H]12 [Imipenem, reference compound]
Carbapenem MIC alone (KPM1111 (NDM, KPC)): Z (key: X: MIC of less than 1 μg/mL; Y: MIC of 1 μg/mL to 10 μg/mL; Z: MIC of greater than 10 μg/mL)
Carbapenem MIC alone (KPM1122 (NDM, VIM)): Z (key: X: MIC of less than 1 μg/mL; Y: MIC of 1 μg/mL to 10 μg/mL; Z: MIC of greater than 10 μg/mL)
Carbapenem MIC alone (KPM1123 (KPC-2 TEM SHV)): Z (key: X: MIC of less than 1 μg/mL; Y: MIC of 1 μg/mL to 10 μg/mL; Z: MIC of greater than 10 μg/mL)
Carbapenem MIC alone (KPM1344 (VIM-1)): Z (key: X: MIC of less than 1 μg/mL; Y: MIC of 1 μg/mL to 10 μg/mL; Z: MIC of greater than 10 μg/mL)
Carbapenem MIC alone (KPM1345 (VIM-1 SHV)): Y (key: X: MIC of less than 1 μg/mL; Y: MIC of 1 μg/mL to 10 μg/mL; Z: MIC of greater than 10 μg/mL)
Carbapenem MIC alone [1]: Z (key: X: MIC of less than 1 μg/mL; Y: MIC of 1 μg/mL to 10 μg/mL; Z: MIC of greater than 10 μg/mL)
Carbapenem MIC alone [2]: Z (key: X: MIC of less than 1 μg/mL; Y: MIC of 1 μg/mL to 10 μg/mL; Z: MIC of greater than 10 μg/mL)
Carbapenem MIC alone (ECL1026 (KPC)): Y (key: X: MIC of less than 1 μg/mL; Y: MIC of 1 μg/mL to 10 μg/mL; Z: MIC of greater than 10 μg/mL)
Carbapenem MIC alone (ECL1036 (KPC)): Y (key: X: MIC of less than 1 μg/mL; Y: MIC of 1 μg/mL to 10 μg/mL; Z: MIC of greater than 10 μg/mL)
Carbapenem MIC alone (ECL1045 (VIM-1)): Y (key: X: MIC of less than 1 μg/mL; Y: MIC of 1 μg/mL to 10 μg/mL; Z: MIC of greater than 10 μg/mL)
Carbapenem MIC alone (ECL1055 (KPC)): Y (key: X: MIC of less than 1 μg/mL; Y: MIC of 1 μg/mL to 10 μg/mL; Z: MIC of greater than 10 μg/mL)
Carbapenem MIC alone [3]: Z (key: X: MIC of less than 1 μg/mL; Y: MIC of 1 μg/mL to 10 μg/mL; Z: MIC of greater than 10 μg/mL)
Carbapenem MIC alone (ECL1082 (VIM-1)): Z (key: X: MIC of less than 1 μg/mL; Y: MIC of 1 μg/mL to 10 μg/mL; Z: MIC of greater than 10 μg/mL)
Carbapenem MIC alone (ECLM1013 (NDM, KPC)): Z (key: X: MIC of less than 1 μg/mL; Y: MIC of 1 μg/mL to 10 μg/mL; Z: MIC of greater than 10 μg/mL)
Carbapenem MIC alone (ECLM1014 (NDM, KPC)): Y (key: X: MIC of less than 1 μg/mL; Y: MIC of 1 μg/mL to 10 μg/mL; Z: MIC of greater than 10 μg/mL)
Carbapenem MIC alone (ECLM1015 (NDM, KPC)): Z (key: X: MIC of less than 1 μg/mL; Y: MIC of 1 μg/mL to 10 μg/mL; Z: MIC of greater than 10 μg/mL)
Carbapenem MIC alone (ECLM1016 (NDM, KPC)): Z (key: X: MIC of less than 1 μg/mL; Y: MIC of 1 μg/mL to 10 μg/mL; Z: MIC of greater than 10 μg/mL)
Carbapenem MIC alone (ECLM1017 (VIM, KPC)): Z (key: X: MIC of less than 1 μg/mL; Y: MIC of 1 μg/mL to 10 μg/mL; Z: MIC of greater than 10 μg/mL)
Carbapenem MIC alone (ECLM1018 (VIM, KPC)): Z (key: X: MIC of less than 1 μg/mL; Y: MIC of 1 μg/mL to 10 μg/mL; Z: MIC of greater than 10 μg/mL)
Carbapenem MIC alone (ECLM1019 (VIM, KPC)): Z (key: X: MIC of less than 1 μg/mL; Y: MIC of 1 μg/mL to 10 μg/mL; Z: MIC of greater than 10 μg/mL)
Carbapenem MIC alone (EC1061 (NDM-1, CMY-6)): Y (key: X: MIC of less than 1 μg/mL; Y: MIC of 1 μg/mL to 10 μg/mL; Z: MIC of greater than 10 μg/mL)
Carbapenem MIC alone [4]: Z (key: X: MIC of less than 1 μg/mL; Y: MIC of 1 μg/mL to 10 μg/mL; Z: MIC of greater than 10 μg/mL)
Carbapenem MIC alone (EC1065 (IMP-1 CMY-2)): Y (key: X: MIC of less than 1 μg/mL; Y: MIC of 1 μg/mL to 10 μg/mL; Z: MIC of greater than 10 μg/mL)
Carbapenem MIC alone (EC1068 (VIM-1)): Y (key: X: MIC of less than 1 μg/mL; Y: MIC of 1 μg/mL to 10 μg/mL; Z: MIC of greater than 10 μg/mL)
